Source: ChEMBL document CHEMBL4651402, “Screening of ~5500 FDA-approved drugs and clinical candidates for anti-SARS-CoV-2 activity” (2021)

System: SARS-CoV-2
Assay: microbe, parasite or virus in culture
Details: Severe acute respiratory syndrome coronavirus 2, Vero C1008, 48 h

Structure (SMILES)	IC50	IC50 (read-out: pIC50 (converted))
Cc1ccc2c(c1)[C@H]1CN(C)CC[C@H]1N2 [STOBADINE]	> 20 µM	> 20 µM
O=C(O)CCCCCCC[C@@H](O)[C@@H](O)CCCCCCO	> 20 µM	> 20 µM
CN1CCN(c2c(F)cc3c(=O)c(C(=O)O)cn4c3c2OCN4C)CC1 [MARBOFLOXACIN]	> 20 µM	> 20 µM
N#CC(c1ccc(F)cc1)c1c(Cl)cc(-n2ncc(=O)[nH]c2=O)cc1Cl (centres undefined) [LETRAZURIL]	> 20 µM	> 20 µM
O=C(O)C1=C[C@@H](O)[C@@H](O)[C@H](O)C1 [SHIKIMIC ACID]	> 20 µM	> 20 µM
Cc1nnnn1N=Cc1ccc(O)c(C(c2ccc(O)cc2)c2cc(C=Nn3nnnc3C)ccc2O)c1 (centres undefined) [VP-14637]	> 20 µM	> 20 µM
C[C@]12CCC(=O)C=C1CC[C@@H]1[C@@H]2CC[C@@]2(C)[C@H]1CC[C@]2(O)C(=O)CO [CORTODOXONE]	> 20 µM	> 20 µM
COC(=O)c1nc2cc(Cl)c3cccnc3c2o1 [QUAZOLAST]	> 20 µM	> 20 µM
NC1(C(=O)O)CCCC1 [CYCLOLEUCINE]	> 20 µM	> 20 µM
CCCCC(CC)C1NC(=O)N(SC(Cl)(Cl)Cl)C1=O (centres undefined) [CHLORDANTOIN]	> 20 µM	> 20 µM
CCCCC[C@H](O)/C=C/[C@H]1[C@H](O)CC(=O)[C@@H]1CCCCCCC(=O)O [ALPROSTADIL]	> 20 µM	> 20 µM
C=CC(=O)N1CCC(Oc2cc3c(Nc4ccc(Cl)c(Cl)c4F)ncnc3cc2OC)CC1 [POZIOTINIB]	> 20 µM	> 20 µM
Cn1c([N+](=O)[O-])cnc1/C=N/N1CC(CN2CCOCC2)OC1=O (centres undefined) [MOXNIDAZOLE]	> 20 µM	> 20 µM
CC12C=CC(=O)C=C1CCC1C2C(O)CC2(C)C1CC[C@]2(O)C(=O)COC(=O)CCC(=O)O (some centres undefined)	> 20 µM	> 20 µM
COc1ccc2cc1Oc1cc3c(cc1OC)CC[N+](C)(C)C3Cc1ccc(cc1)Oc1c(OC)c(OC)cc3c1C(C2)[N+](C)(C)CC3 (centres undefined)	> 20 µM	> 20 µM
NC(N)=Nc1nc(CSCC/C(N)=N/S(N)(=O)=O)cs1 [FAMOTIDINE]	> 20 µM	> 20 µM
C[C@]12CC[C@H](O)CC1=CC[C@@H]1[C@@H]2CC[C@]2(C)C(c3cccnc3)=CC[C@@H]12 [ABIRATERONE]	> 20 µM	> 20 µM
O=C1Nc2ccc(Cl)cc2C(c2ccccc2)=NC1O (centres undefined) [OXAZEPAM]	> 20 µM	> 20 µM
O=C(Cn1c2ccccc2c2c(N3CCCC3)nc(N3CCCC3)nc21)N1CCCC1	> 20 µM	> 20 µM
CC(C)Cn1c(=O)n(C)c(=O)c2nc[nH]c21 [ISOBUTYLMETHYLXANTHINE]	> 20 µM	> 20 µM
COc1ccc2c3c1O[C@H]1C(=O)CC[C@@]4(O)[C@@H](C2)N(C)CC[C@]314 [OXYCODONE]	> 20 µM	> 20 µM
CCCCCCCCCCCCCCCC[N+](C)(C)C [CETRIMONIUM]	> 20 µM	> 20 µM
CCOC(=O)[C@H](CCc1ccccc1)N[C@@H](C)C(=O)N1CCC[C@H]1C(=O)O	> 20 µM	> 20 µM
CCN1CCC[C@H]1CNC(=O)c1c(O)c(Cl)cc(Cl)c1OC [RACLOPRIDE]	> 20 µM	> 20 µM
CNCCc1ccccn1 [BETAHISTINE]	> 20 µM	> 20 µM
CC[N+]1(C)CCCC(OC(=O)C(O)(c2ccccc2)c2ccccc2)C1 (centres undefined) [PIPENZOLATE]	> 20 µM	> 20 µM

Structure (SMILES)	IC50	IC50 (read-out: pIC50 (converted))
OC[C@H]1O[C@@H](c2ccc(F)c(Cc3cc4ccccc4s3)c2)[C@H](O)[C@@H](O)[C@@H]1O [IPRAGLIFLOZIN]	> 20 µM	> 20 µM
O=c1c(O)c(-c2ccccc2)oc2cc(O)ccc12 [3,7-DIHYDROXYFLAVONE]	> 20 µM	> 20 µM
CCCCCCCCCCC(C)(C)C(=O)Nc1c(OC)cc(OC)cc1OC [CL-976]	> 20 µM	> 20 µM
Cc1cc(CC(C)CC(C)(C)C)n(O)c(=O)c1 (centres undefined) [PIROCTONE]	> 20 µM	> 20 µM
Cc1ccc2c(Br)cc(Br)c(OC(=O)c3ccccc3)c2n1 [BROXALDINE]	> 20 µM	> 20 µM
CCCn1cnc2c1c(=O)n(CCCCC(C)=O)c(=O)n2C [PROPENTOFYLLINE]	> 20 µM	> 20 µM
CNC(=O)c1cccc(NCC(=O)NCCc2ccc(OC)c(OC)c2)c1 [ECABAPIDE]	> 20 µM	> 20 µM
CC(C)C[C@H]1C(=O)N2CCC[C@H]2[C@]2(O)O[C@](NC(=O)[C@@H]3C=C4c5cccc6[nH]cc(c56)C[C@H]4N(C)C3)(C(C)C)C(=O)N12 [ERGOCRYPTINE]	> 20 µM	> 20 µM
CN(C)Cc1c[nH]c2ccccc12 [GRAMINE]	> 20 µM	> 20 µM
NCCCC[C@H](NC(=O)[C@@H](Cc1cc(Br)c(O)c(Br)c1)NC(=O)N1CCC(N2Cc3ccccc3NC2=O)CC1)C(=O)N1CCN(c2ccncc2)CC1 [OLCEGEPANT]	> 20 µM	> 20 µM
Cc1cc2c(F)c(Oc3ncnn4cc(OC[C@@H](C)O)c(C)c34)ccc2[nH]1 [BRIVANIB]	> 20 µM	> 20 µM
CC(C)CCCC(C)C1CCC2C3C(=O)C=C4CC(O)CCC4(C)C3CCC12C (centres undefined)	> 20 µM	> 20 µM
CCC(C)C(NC(=O)C(CCC(N)=O)NC(=O)C1CCCN1C(=O)C(CCCNC(=N)N)NC(=O)C1CCCN1C(=O)C(Cc1c[nH]c2ccccc12)NC(=O)C1CCC(=O)N1)C(=O)N1CCCC1C(=O)N1CCCC1C(=O)O (centres undefined)	> 20 µM	> 20 µM
CN1CCN(C2=Cc3cc(Cl)ccc3/C(=C/C#N)c3ccccc32)CC1 [RILAPINE]	> 20 µM	> 20 µM
CCN(CC)C(=O)N[C@@H]1CC2c3cccc4[nH]cc(c34)CC2N(C)C1 (some centres undefined)	> 20 µM	> 20 µM
Cc1nccc2c1[nH]c1ccccc12 [HARMAN]	> 20 µM	> 20 µM
CC[C@@]1([C@@H]2O[C@@H]([C@H]3O[C@@](O)(CO)[C@H](C)C[C@@H]3C)C[C@@H]2C)CC[C@H]([C@]2(C)CC[C@]3(C[C@H](O)[C@@H](C)[C@@H]([C@@H](C)[C@@H](OC)[C@H](C)C(=O)O)O3)O2)O1 [MONENSIN]	> 20 µM	> 20 µM
COC(=O)N/N=C/c1c[n+]([O-])c2ccccc2[n+]1[O-] [CARBADOX]	> 20 µM	> 20 µM
c1ccc2c(c1)cc1ccc3cccc4ccc2c1c34	> 20 µM	> 20 µM
C[N+]1(C)CCN(CC(O)(c2ccccc2)C2CCCCC2)CC1 (centres undefined) [HEXOCYCLIUM]	> 20 µM	> 20 µM
O=C(O)C1N[C@H](C(=O)O)CS1 (some centres undefined)	> 20 µM	> 20 µM
CNCC[C@@H](Oc1ccccc1C)c1ccccc1 [ATOMOXETINE]	> 20 µM	> 20 µM
CC1CC2=CC(=O)CCC2C2CCC3(C)C(CCC3(C)O)C12 (centres undefined)	> 20 µM	> 20 µM
Cc1nc2c(C)cccn2c(=O)c1CCN1CCC(c2noc3cc(F)ccc23)CC1 [OCAPERIDONE]	> 20 µM	> 20 µM
NC(=O)OC[C@@H](N)Cc1ccccc1	> 20 µM	> 20 µM
COC(=O)[C@@H]1[C@H]2C[C@H]3c4[nH]c5ccccc5c4CCN3C[C@@H]2CC[C@@H]1O [YOHIMBINE]	> 20 µM	> 20 µM
